Experiments:
hα6(A112V) + hβ4 nAChR = hα6(A112V) + hβ4 nAChR (Homo sapiens, UniProt P30926+Q15825, A112V); settings: 100 μM nicotine; oocytes clamped at −70 mV
Protocol: (§1) We planned to introduce identical amounts of cRNA, presumably producing equal amounts of each subunit protein, into oocytes largely due to lack of information about the levels of mRNA for each subunits that compose α6*-nAChRs in neurons or other cells. Concentrations of cRNAs for each nAChR α and β subunits (WT, mutant or variant) were adjusted to 500 ng μL^−1. We provisionally assumed that hα6 or its variants in association with hβ2 or hβ4 subunits would form complexes having 2:3 and/or 3:2 ratios of the indicated subunits and that oocytes also injected with WT or mutant form of β3 subunits (i.e., β3^V9’S) would express nAChR with 2:2:1 ratios of α:β:(β3 or β3^V9’S) subunits. For expression of binary nAChRs (i.e., two subunit containing nAChRs; α + β but not β3) cRNA mixtures were prepared by mixing 1 μL of cRNA for each subunit and an additional μL of RNAse free water (i.e., total volume 3 μL). Similarly for expression of ternary nAChRs [i.e., three subunit containing nAChRs; (α + β) + (β3 or β3^V9’S)] cRNA mixtures were prepared by mixing 1 μL of cRNA for each subunit. Several preparations of each mixture were prepared and stored at −80°C until further use. Injection of 138 nL of cRNA, out of 3 μL cRNA mixtures, into each oocyte would deliver ~23 ng of cRNA for each subunit whether binary or ternary nAChRs are expressed.
(§2) Two to 5 days after injection, oocytes were placed in a small-volume chamber and continuously perfused with OR2. The chamber was grounded through an agarose bridge. The oocytes were voltage-clamped at −70 mV (unless otherwise noted) to measure agonist or antagonist induced currents using Axoclamp 900A and pClamp 10.2 software (Molecular Devices, Sunnyvale, CA). The current signal was low-pass filtered at 10 Hz with the built-in low-pass Bessel filter in the Axoclamp 900A and digitized at 20 Hz with Axon Digidata1440A and pClamp10. […] Drugs (agonists and antagonists) were prepared daily in OR2. Drug was applied using a Valvelink 8.2 perfusion system (Automate scientific, Berkeley, CA). […] Then for the purpose of comparison electrophysiological recordings were performed in a given day in a given batch of oocytes following the same order of injections. […] All hβ4*-nAChR recordings were done in similar conditions to facilitate comparisons between hα6hβ4- and hα6hβ4hβ3-nAChRs. All electrophysiological measurements were conducted or checked in at least two batches of oocytes.
(§3) Raw data was collected and processed in part using pClamp 10.2 (Molecular Devices, Sunnyvale, CA), Origin 7.5 (OriginLab Corporation, Northampton, MA) and a spreadsheet (Excel; Microsoft, Bellevue, WA). Peak current amplitudes (Imax) are reported as mean ± SEM (for results from at least three oocytes, i.e., n = 3).

hα6(N203T) + hβ4 nAChR = hα6(N203T) + hβ4 nAChR (Homo sapiens, UniProt P30926+Q15825, N203T); settings: 100 μM nicotine; oocytes clamped at −70 mV
Protocol: as §1, §2, §3

[1] = target: hα6 + codon optimized hβ2 + hβ3^V9’S nAChR (Homo sapiens, UniProt P17787+Q15825); settings: 100 μM nicotine
Protocol: as §1, §2, §3

[2] = target: hα6(D92E) + hβ4 + hβ3 nAChR (Homo sapiens, UniProt P30926+Q15825, D92E); settings: 100 μM nicotine; oocytes clamped at −70 mV
Protocol: as §1, §2, §3

[3] = target: hα6(E101K) + hβ4 + hβ3 nAChR (Homo sapiens, UniProt P30926+Q15825, E101K); settings: 100 μM nicotine; oocytes clamped at −70 mV
Protocol: as §1, §2, §3

[4] = target: hα6(S156R) + hβ4 + hβ3 nAChR (Homo sapiens, UniProt P30926+Q15825, S156R); settings: nicotine
Protocol: as §1, §2, §3

[5] = target: hα6(N203T) + WT hβ2 + hβ3^V9’S nAChR (Homo sapiens, UniProt P17787+Q15825, N203T); settings: 100 μM nicotine
Protocol: as §1, §2, §3

[6] = target: hα6(N203T) + codon optimized hβ2 + hβ3^V9’S nAChR (Homo sapiens, UniProt P17787+Q15825, N203T); settings: 100 μM nicotine; oocytes clamped at −70 mV
Protocol: as §1, §2, §3

hα6(E101K) + hβ4 nAChR = hα6(E101K) + hβ4 nAChR (Homo sapiens, UniProt P30926+Q15825, E101K); settings: 100 μM nicotine; oocytes clamped at −70 mV
Protocol: as §1, §2, §3

[7] = target: hα6(D92E) + codon optimized hβ2 + hβ3^V9’S nAChR (Homo sapiens, UniProt P17787+Q15825, D92E); settings: 100 μM nicotine; oocytes clamped at −70 mV
Protocol: as §1, §2, §3

[8] = target: hα6(R87C) + hβ4 + hβ3 nAChR (Homo sapiens, UniProt P30926+Q15825, R87C); settings: nicotine
Protocol: as §1, §2, §3

[9] = target: hα6(D92E) + WT hβ2 + hβ3^V9’S nAChR (Homo sapiens, UniProt P17787+Q15825, D92E); settings: nicotine
Protocol: as §1, §2, §3

[10] = target: hα6(I226T) + WT hβ2 + hβ3^V9’S nAChR (Homo sapiens, UniProt P17787+Q15825, I226T); settings: 100 μM nicotine
Protocol: as §1, §2, §3

[11] = target: hα6(N46K) + hβ4 + hβ3 nAChR (Homo sapiens, UniProt P30926+Q15825, N46K); settings: 100 μM nicotine; oocytes clamped at −70 mV
Protocol: as §1, §2, §3

[12] = target: hα6(E101K) + codon optimized hβ2 + hβ3^V9’S nAChR (Homo sapiens, UniProt P17787+Q15825, E101K); settings: 100 μM nicotine; oocytes clamped at −70 mV
Protocol: as §1, §2, §3

[13] = target: hα6(A184D) + hβ4 + hβ3 nAChR (Homo sapiens, UniProt P30926+Q15825, A184D); experiment: Oocyte two-electrode voltage clamp; format: cell-based
Protocol: as §1, §2, §3

hα6 + hβ4 nAChR = hα6 + hβ4 nAChR (Homo sapiens, UniProt P30926+Q15825); experiment: Oocyte two-electrode voltage clamp; format: cell-based
Protocol: as §1, §2, §3

[14] = 100 μM nicotine, oocytes clamped at −70 mV

Sequence of hα6(A184D) + hβ4 + hβ3 nAChR (Q15825 26-494 A184D): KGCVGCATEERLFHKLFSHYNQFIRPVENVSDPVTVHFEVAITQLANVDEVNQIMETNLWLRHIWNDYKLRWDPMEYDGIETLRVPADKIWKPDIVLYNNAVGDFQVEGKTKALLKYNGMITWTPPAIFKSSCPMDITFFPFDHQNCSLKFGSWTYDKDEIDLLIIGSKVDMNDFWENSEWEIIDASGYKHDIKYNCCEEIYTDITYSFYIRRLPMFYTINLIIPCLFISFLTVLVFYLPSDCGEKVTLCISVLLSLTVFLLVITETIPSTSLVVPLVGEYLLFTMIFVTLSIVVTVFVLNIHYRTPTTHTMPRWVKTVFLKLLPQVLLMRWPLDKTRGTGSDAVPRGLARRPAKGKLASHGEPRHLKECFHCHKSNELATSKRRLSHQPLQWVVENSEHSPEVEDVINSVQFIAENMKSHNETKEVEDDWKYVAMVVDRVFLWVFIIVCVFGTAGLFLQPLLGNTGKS
Sequence of hα6(A184D) + hβ4 + hβ3 nAChR (P30926 22-498): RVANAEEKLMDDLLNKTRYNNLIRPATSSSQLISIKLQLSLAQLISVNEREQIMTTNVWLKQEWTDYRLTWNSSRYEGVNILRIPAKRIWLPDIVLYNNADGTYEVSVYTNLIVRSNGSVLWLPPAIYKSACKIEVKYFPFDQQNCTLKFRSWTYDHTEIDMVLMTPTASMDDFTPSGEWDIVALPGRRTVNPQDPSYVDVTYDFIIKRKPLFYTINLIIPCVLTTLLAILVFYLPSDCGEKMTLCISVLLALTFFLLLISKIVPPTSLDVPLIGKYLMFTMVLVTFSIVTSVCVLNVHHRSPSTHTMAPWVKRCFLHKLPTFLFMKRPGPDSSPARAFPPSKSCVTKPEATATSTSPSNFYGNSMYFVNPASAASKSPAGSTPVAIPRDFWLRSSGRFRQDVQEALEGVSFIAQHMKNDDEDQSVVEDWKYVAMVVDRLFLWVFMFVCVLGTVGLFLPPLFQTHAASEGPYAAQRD
Sequence of hα6(A184D) + hβ4 + hβ3 nAChR (Q05901 25-458 partner limits assumed): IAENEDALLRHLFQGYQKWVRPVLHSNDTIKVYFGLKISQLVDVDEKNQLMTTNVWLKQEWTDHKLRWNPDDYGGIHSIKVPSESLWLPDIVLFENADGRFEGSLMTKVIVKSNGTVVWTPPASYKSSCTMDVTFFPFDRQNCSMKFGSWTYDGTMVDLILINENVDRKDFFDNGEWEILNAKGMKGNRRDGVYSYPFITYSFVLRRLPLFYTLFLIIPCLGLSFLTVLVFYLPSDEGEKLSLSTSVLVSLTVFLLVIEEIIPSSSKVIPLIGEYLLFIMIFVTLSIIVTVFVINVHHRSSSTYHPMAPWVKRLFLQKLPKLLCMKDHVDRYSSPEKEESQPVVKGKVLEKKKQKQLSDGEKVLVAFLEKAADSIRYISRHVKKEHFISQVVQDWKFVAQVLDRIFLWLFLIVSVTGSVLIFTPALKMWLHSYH
Sequence of hα6(N203T) + WT hβ2 + hβ3^V9’S nAChR (Q15825 26-494 N203T): as the sequence (Q15825 26-494 A184D) above, with D159A, N178T counted along it
Sequence of hα6(N203T) + WT hβ2 + hβ3^V9’S nAChR (P17787 26-502): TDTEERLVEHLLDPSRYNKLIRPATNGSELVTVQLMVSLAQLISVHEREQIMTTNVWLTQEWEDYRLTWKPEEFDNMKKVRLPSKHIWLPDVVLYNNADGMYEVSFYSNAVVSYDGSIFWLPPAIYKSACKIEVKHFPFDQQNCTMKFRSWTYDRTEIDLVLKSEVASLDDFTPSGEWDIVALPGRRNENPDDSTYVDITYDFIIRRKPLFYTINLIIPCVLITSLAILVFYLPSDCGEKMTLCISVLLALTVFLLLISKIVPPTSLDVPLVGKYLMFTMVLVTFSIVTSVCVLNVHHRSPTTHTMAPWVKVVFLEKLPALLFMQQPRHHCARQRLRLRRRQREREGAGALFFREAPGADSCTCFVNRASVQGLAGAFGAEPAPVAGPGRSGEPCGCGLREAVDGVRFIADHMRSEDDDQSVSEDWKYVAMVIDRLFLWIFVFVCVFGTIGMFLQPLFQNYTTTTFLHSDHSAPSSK
Sequence of hα6(N203T) + WT hβ2 + hβ3^V9’S nAChR (Q05901 25-458 V273S partner limits assumed): as the sequence (Q05901 25-458 partner limits assumed) above, with V249S counted along it
Sequence of hα6 + codon optimized hβ2 + hβ3^V9’S nAChR (Q15825 26-494): as the sequence (Q15825 26-494 A184D) above, with D159A counted along it
Sequence of hα6 + codon optimized hβ2 + hβ3^V9’S nAChR (P17787 26-502): as the sequence (P17787 26-502) above
Sequence of hα6 + codon optimized hβ2 + hβ3^V9’S nAChR (Q05901 22-458 V273S partner): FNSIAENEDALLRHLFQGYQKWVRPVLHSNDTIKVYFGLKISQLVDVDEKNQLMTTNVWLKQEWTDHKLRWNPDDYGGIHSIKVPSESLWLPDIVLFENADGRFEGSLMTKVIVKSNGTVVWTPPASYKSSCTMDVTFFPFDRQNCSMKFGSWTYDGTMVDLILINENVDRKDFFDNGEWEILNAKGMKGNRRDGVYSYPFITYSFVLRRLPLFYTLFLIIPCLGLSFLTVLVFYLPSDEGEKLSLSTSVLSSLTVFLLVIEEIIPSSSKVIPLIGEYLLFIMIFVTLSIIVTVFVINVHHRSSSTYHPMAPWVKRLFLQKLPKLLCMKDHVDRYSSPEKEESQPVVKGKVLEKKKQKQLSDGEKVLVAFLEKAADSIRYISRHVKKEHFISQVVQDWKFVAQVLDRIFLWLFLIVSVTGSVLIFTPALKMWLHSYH

CN1CCC[C@H]1c1cccnc1 [nicotine, L-nicotine]
peak current (Imax, mean ± SE) (hα6(A112V) + hβ4 nAChR): 110 ± 22 nA
peak current (Imax, mean ± SE) (hα6(N203T) + hβ4 nAChR): 33 ± 3 nA
current response relative to receptor with WT hβ2 ([1]; codon optimized vs. WT hβ2): ~ 31 fold
peak current (Imax, mean ± SE) ([1]; oocytes clamped at −70 mV): 469 ± 75 nA
Mean (±SE) peak current response [2]: 126 ± 5 nA
Mean (±SE) peak current response [3]: 467 ± 54 nA
current response [4]: did not elicit current responses
peak current response ([5]; 3 days after cRNA injection): 15-30 nA
Mean (±SEM) current response ([5]; 5 days after injection): 53 ± 12 nA
peak current (Imax, mean ± SE) [6]: 762 ± 253 nA
peak current (Imax, mean ± SE) (hα6(E101K) + hβ4 nAChR): 73 ± 10 nA
peak current (Imax, mean ± SE) [7]: 66 ± 20 nA
current response [8]: did not elicit current responses
current response [9]: did not yield current responses
peak current response ([10]; 3 days after cRNA injection): 15-30 nA
Mean (±SEM) current response ([10]; 5 days after injection): 123 ± 40 nA
Mean (±SE) peak current response [11]: 307 ± 39 nA
peak current (Imax, mean ± SE) [12]: 551 ± 156 nA
EC50 [13]: 4.9 µM
Imax conc. (concentration where maximal peak current achieved) [13]: 100 µM
nH ± SE (Hill coefficient) [13]: 1.1±0.11
Mean (±SE) peak current response [13, 14]: 554 ± 108 nA
Imax conc. (concentration where maximal peak current achieved) (hα6 + hβ4 nAChR): 100 µM
peak current (Imax, mean ± SE) (hα6 + hβ4 nAChR; [14]): 35 ± 2 nA
